Experimental data as given in article PMC11768653, “Characterization of the Phosphotransferase from Bacillus subtilis 1101 That Is Responsible for the Biotransformation of Zearalenone” (Toxins, 2025).

Molecular target: T1, ZPH1101 (Bacillus subtilis, UniProt O34796)
T1 construct: gene yvkC; full-length zph1101 in pET29a, N-terminal 6xHis, E. coli BL21(DE3), Ni-NTA, 90 kDa
Assay: HPLC of residual ZEA, Michaelis-Menten fit
Format: biochemical
Details: ATP, Mg2+; pH 8.0, 45 °C
Description: HPLC of residual ZEA, Michaelis-Menten fit on ZPH1101 | Michaelis constant (Km), and catalytic constant (kcat) were calculated through fitting to be

T1 sequence (O34796 whole entry): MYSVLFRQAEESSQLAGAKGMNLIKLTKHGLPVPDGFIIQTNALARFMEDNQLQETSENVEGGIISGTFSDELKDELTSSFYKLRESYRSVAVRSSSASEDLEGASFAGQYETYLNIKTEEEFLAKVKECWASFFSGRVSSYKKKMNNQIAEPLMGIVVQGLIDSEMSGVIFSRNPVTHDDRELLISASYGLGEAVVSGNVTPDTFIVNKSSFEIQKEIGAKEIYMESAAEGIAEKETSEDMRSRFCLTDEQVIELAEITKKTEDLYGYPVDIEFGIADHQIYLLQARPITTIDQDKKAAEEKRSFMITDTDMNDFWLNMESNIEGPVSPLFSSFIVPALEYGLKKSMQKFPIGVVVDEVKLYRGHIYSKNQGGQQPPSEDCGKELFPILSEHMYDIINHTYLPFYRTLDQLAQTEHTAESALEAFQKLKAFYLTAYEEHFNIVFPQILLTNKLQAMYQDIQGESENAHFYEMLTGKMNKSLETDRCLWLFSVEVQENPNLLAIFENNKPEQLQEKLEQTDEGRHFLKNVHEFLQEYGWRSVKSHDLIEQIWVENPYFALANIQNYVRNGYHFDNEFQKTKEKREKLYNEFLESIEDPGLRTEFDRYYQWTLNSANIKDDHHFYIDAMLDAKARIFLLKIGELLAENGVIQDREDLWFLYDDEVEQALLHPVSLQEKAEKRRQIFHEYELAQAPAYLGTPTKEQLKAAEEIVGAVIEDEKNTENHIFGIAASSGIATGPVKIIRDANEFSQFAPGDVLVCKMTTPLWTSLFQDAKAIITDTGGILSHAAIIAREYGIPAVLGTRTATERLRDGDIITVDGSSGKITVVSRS

For `C[C@H]1CCCC(=O)CCC/C=C/c2cc(O)cc(O)c2C(=O)O1` [zearalenone], the Km was 18.2 µM.
